Measurements published in patent US20190355440A1, “FLOW CYTOMETRY DATA […] ANTIMICROBIAL AGENT S[…]” (priority 2016, published 2019).

System: Enterobacteriaceae strains
Test: FCM-AST: flow cytometry fluorescence distribution (DiBAC4(3) membrane depolarization marker) of antibiotic-treated strains
Format: cell-based
Method: In a next step 22, liquid samples with different concentrations {C1, . . . , Cm} of the antibiotic are prepared for each of the selected strains Si, where C1=0 (no antibiotic) and m>2 is the number of non-null concentrations of antibiotic. Said concentrations are stored in the computer unit 14. […] After 2 h growth at 35° C. with shaking at 180 rpm, the resulting exponential phase bacterial culture is normalized at 0.5 McF and used to inoculate wells of a microtiterplate supplemented with antibiotics at the different concentrations {C1, . . . , Cm}. After 1 h of incubation at 35° C., a membrane depolarization fluorescent marker, for example (Bis-(1,3-Dibutylbarbituric Acid)Trimethine Oxonol), also known as “DiBAC4(3)”, is added to the wells at a final concentration of 0.5 μg/ml. An additional 15 min incubation with the marker is at 35° C. is then carried out. The concentrations {C1, . . . , Cm} are chosen such that the range [BPS, BPR] is included or equal to the range [C2, Cm] of non-null concentrations.
In the step 24, a FCM acquisition is performed for each sample by means of the flow-cytometer 12 and the corresponding FSC, SSC and fluorescence distributions stored in the computer unit 14. For each strain Si, and for each concentration Cj, a FSC distribution “FSCi,j”, a SSC distribution “SSCi,j” and a fluorescence distribution “FIi,j” are thus stored in the computer unit 14, e.g. in the form of digital vectors.
The experiment was performed as described in the following lines: • A panel of 107 Enterobacteriaceae strains (FIG. 6: Distribution of the panel of strains according to their MICs for Gentamicin) were treated with 0, 2, 4 and 8 mg/L of Gentamicin following the protocol described in FIG. 3 and analyzed by FCM.
In this experiment, we have made an evaluation of wide range of prediction models for Ceftazidime: • 128 Enterobacteriaceae strains (FIG. 9: Distribution of the panel of strains according to their MICs for Ceftazidime) were treated or not with four different concentrations of Ceftazidime (1, 2, 4 and 8 mg/L) using the FCM protocol described in FIG. 3; • FCM data were used to generate feature vectors as described above; • For each strategy (BPS, GS and GMS), 7 type of prediction models were built based on the feature vectors generated (FIG. 10: Number of predictions models generated. “FL1” means fluorescence); • The performance of all models were evaluated following cross validation as described above.

CC(C)(O/N=C(\C(=O)N[C@@H]1C(=O)N2C(C(=O)[O-])=C(C[n+]3ccccc3)CS[C@H]12)c1csc(N)n1)C(=O)O [Ceftazidime]
fluorescence distribution of treated strains (inferred from poor performance of quantile models) (128 Enterobacteriaceae strains, 1, 2, 4 and 8 mg/L Ceftazidime): the majority of strains treated with Ceftazidime exhibit homogeneous distributions of fluorescence

Gentamicin
fluorescence distribution profile vs untreated sample (intermediate phenotype strains, 2 mg/L Gentamicin): more strains showed no shift of fluorescence (profile A) | fluorescence distribution profile vs untreated sample (intermediate phenotype strains, 4 and 8 mg/L Gentamicin): equal number of strains exhibited either no shift (profile A) or heterogeneous fluorescence distribution (profile B) | resistant strains that did not show any shift in fluorescence (profile A) (resistant strains, all concentrations tested (2, 4, 8 mg/L)): 36 out of 37 | fluorescence distribution profile vs untreated sample (susceptible phenotype strains, panel of 107 strains, 2 mg/L Gentamicin): equal number of strains exhibited either no shift (profile A) or heterogeneous fluorescence distributions (profile B) | fluorescence distribution profile vs untreated sample (susceptible phenotype strains, panel of 107 strains, 4 and 8 mg/L Gentamicin): the majority of strains exhibited an heterogeneous fluorescence distribution (profile B)
